Experimental data reported in patent US20210045385A1, “PYRIDAZINONE-SUBSTITUTED KETOXIMES AS HERBICIDES” (FMC Corporation, priority 2018, published 2021).

Tests used:
Type in all cases: in vivo
[1] = test system: Italian ryegrass (Lolium mutiflorum); assay: Test C preemergence, visual plant response rating; conditions: Test C, 0 is no effect, 100 is complete control
Summary of the method: (§1)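 Seeds sown in a loam–sand blend got a directed preemergence soil spray; postemergence plants (2–10 cm, one- to two-leaf stage) were sprayed with compound in a non-phytotoxic solvent plus surfactant. Injury was scored visually against untreated controls after about 10 d in a greenhouse on a 0–100 scale (100 = complete control).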

[2] = test system: barnyardgrass (Echinochloa crus-galli); assay: Test C preemergence, visual plant response rating; conditions: Test C, 0 is no effect, 100 is complete control
Summary of the method: as §1

[3] = test system: foxtail, giant (giant foxtail, Setaria faberi); assay: Test C preemergence, visual plant response rating; conditions: Test C, 0 is no effect, 100 is complete control
Summary of the method: as §1

[4] = test system: kochia (Bassia scoparia); assay: Test C preemergence, visual plant response rating; conditions: Test C, 0 is no effect, 100 is complete control
Summary of the method: as §1

[5] = test system: pigweed (Amaranthus retroflexus); assay: Test C preemergence, visual plant response rating; conditions: Test C, 0 is no effect, 100 is complete control
Summary of the method: as §1

[6] = test system: Italian ryegrass (Lolium mutiflorum); assay: Test C postemergence, visual plant response rating
Summary of the method: as §1

[7] = test system: barnyardgrass (Echinochloa crus-galli); assay: Test C postemergence, visual plant response rating
Summary of the method: as §1

[8] = test system: blackgrass (Alopecurus myosuroides); assay: Test C postemergence, visual plant response rating
Summary of the method: as §1

[9] = test system: corn (Zea mays); assay: Test C postemergence, visual plant response rating
Summary of the method: as §1

[10] = test system: foxtail, giant (giant foxtail, Setaria faberi); assay: Test C postemergence, visual plant response rating
Summary of the method: as §1

[11] = test system: galium (catchweed bedstraw, Galium aparine); assay: Test C postemergence, visual plant response rating
Summary of the method: as §1

[12] = test system: kochia (Bassia scoparia); assay: Test C postemergence, visual plant response rating
Summary of the method: as §1

[13] = test system: pigweed (Amaranthus retroflexus); assay: Test C postemergence, visual plant response rating
Summary of the method: as §1

[14] = test system: ragweed (common ragweed, Ambrosia artemisiifolia); assay: Test C postemergence, visual plant response rating
Summary of the method: as §1

[15] = test system: wheat (Triticum aestivum); assay: Test C postemergence, visual plant response rating
Summary of the method: as §1

[16] = test system: barnyardgrass (Echinochloa crus-galli); assay: Test D flooded paddy test, visual plant response rating; conditions: 250 g ai/ha, scale 0 to 100 (0 no effect, 100 complete control), 13 to 15 d
Summary of the method: (§2)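 Plants grown to the 2-leaf stage; pots flooded to 3 cm above soil and compound applied directly into paddy water, depth held throughout. Kept in greenhouse 13 to 15 d, then rated visually against untreated controls on a 0–100 scale (0 no effect, 100 complete control).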

[17] = test system: duck salad (Heteranthera limosa); assay: as above; conditions: 250 g ai/ha, scale 0 to 100 (0 no effect, 100 complete control), 13 to 15 d
Summary of the method: as §2

[18] = test system: rice (Oryza sativa); assay: as above; conditions: 250 g ai/ha, scale 0 to 100 (0 no effect, 100 complete control), 13 to 15 d
Summary of the method: as §2

[19] = test system: sedge umbrella (small-flower umbrella sedge, Cyperus difformis); assay: as above; conditions: 250 g ai/ha, scale 0 to 100 (0 no effect, 100 complete control), 13 to 15 d
Summary of the method: as §2

[20] = Test C, postemergence, 125 g ai/ha

| Compound | Ryegrass, Italian plant response rating (0 to 100 scale) ([1]; 125 g ai/ha) | Barnyardgrass plant response rating (0 to 100 scale) ([2]; 31 g ai/ha) | Barnyardgrass plant response rating (0 to 100 scale) ([2]; 125 g ai/ha) | Foxtail, Giant plant response rating (0 to 100 scale) ([3]; 31 g ai/ha) | Foxtail, Giant plant response rating (0 to 100 scale) ([3]; 125 g ai/ha) | Kochia plant response rating (0 to 100 scale) ([4]; 125 g ai/ha) | Pigweed plant response rating (0 to 100 scale) ([5]; 31 g ai/ha) | Pigweed plant response rating (0 to 100 scale) ([5]; 125 g ai/ha) | Ryegrass, Italian plant response rating (0 to 100 scale) ([6]; Postemergence, 31 g ai/ha) | Ryegrass, Italian plant response rating (0 to 100 scale) [6, 20] | Barnyardgrass plant response rating (0 to 100 scale) ([7]; Postemergence, 31 g ai/ha) | Barnyardgrass plant response rating (0 to 100 scale) [7, 20] | Blackgrass plant response rating (0 to 100 scale) ([8]; Postemergence, 31 g ai/ha) | Blackgrass plant response rating (0 to 100 scale) [8, 20] | Corn plant response rating (0 to 100 scale) ([9]; Postemergence, 31 g ai/ha) | Corn plant response rating (0 to 100 scale) [9, 20] | Foxtail, Giant plant response rating (0 to 100 scale) ([10]; Postemergence, 31 g ai/ha) | Foxtail, Giant plant response rating (0 to 100 scale) [10, 20] | Galium plant response rating (0 to 100 scale) ([11]; Postemergence, 31 g ai/ha) | Galium plant response rating (0 to 100 scale) [11, 20] | other results |
| --- | --- | --- | --- | --- | --- | --- | --- | --- | --- | --- | --- | --- | --- | --- | --- | --- | --- | --- | --- | --- | --- |
| C#CCO/N=C(\c1c(O)c(Cl)nn(C)c1=O)c1ccc(F)c2ccccc12 [Compound 220] | 100 | 0 | 90 | 20 | 100 | 60 | 30 | 100 | 70 | 100 | 40 | 80 | 30 | 80 | 10 | 40 | 60 | 100 | 70 | 100 | Ryegrass, Italian plant response rating (0 to 100 scale) ([1]; 31 g ai/ha): 30; Kochia plant response rating (0 to 100 scale) ([4]; 31 g ai/ha): 0; Kochia plant response rating (0 to 100 scale) ([12]; Postemergence, 31 g ai/ha): 50; Kochia plant response rating (0 to 100 scale) [12, 20]: 80; Pigweed plant response rating (0 to 100 scale) ([13]; Postemergence, 31 g ai/ha): 80; Pigweed plant response rating (0 to 100 scale) [13, 20]: 100; Ragweed plant response rating (0 to 100 scale) ([14]; Postemergence, 31 g ai/ha): 60; Ragweed plant response rating (0 to 100 scale) [14, 20]: 100; Wheat plant response rating (0 to 100 scale) ([15]; Postemergence, 31 g ai/ha): 40; Wheat plant response rating (0 to 100 scale) [15, 20]: 90; Plant response rating, Barnyardgrass (Flood) [16]: 0; Plant response rating, Ducksalad (Flood) [17]: 0; Plant response rating, Rice (Flood) [18]: 0; Plant response rating, Sedge, Umbrella (Flood) [19]: 0 |
| CO/N=C(\c1c(OC(C)=O)c(Cl)nn(C)c1=O)c1cc(Br)cc2ccccc12 [Compound 231] | 0 | 60 | 90 | 30 | 90 | 0 | 40 | 50 | 0 | 10 | 30 | 70 | 10 | 20 | 0 | 20 | 30 | 70 | 70 | 100 | Kochia plant response rating (0 to 100 scale) ([12]; Postemergence, 31 g ai/ha): 10; Kochia plant response rating (0 to 100 scale) [12, 20]: 20; Pigweed plant response rating (0 to 100 scale) ([13]; Postemergence, 31 g ai/ha): 20; Pigweed plant response rating (0 to 100 scale) [13, 20]: 60; Ragweed plant response rating (0 to 100 scale) ([14]; Postemergence, 31 g ai/ha): 100; Ragweed plant response rating (0 to 100 scale) [14, 20]: 100; Wheat plant response rating (0 to 100 scale) ([15]; Postemergence, 31 g ai/ha): 0; Wheat plant response rating (0 to 100 scale) [15, 20]: 0; Plant response rating, Barnyardgrass (Flood) [16]: 15; Plant response rating, Ducksalad (Flood) [17]: 75; Plant response rating, Rice (Flood) [18]: 0; Plant response rating, Sedge, Umbrella (Flood) [19]: 30 |
| CC(C)O/N=C(/c1c(O)c(Cl)nn(C)c1=O)c1cc(Br)cc2ccccc12 [Compound 232] | 0 | 60 | 100 | 70 | 100 | 10 | 70 | 90 | 0 | 0 | 40 | 90 | 20 | 50 | 0 | 10 | 60 | 80 | 80 | 100 | Ryegrass, Italian plant response rating (0 to 100 scale) ([1]; 31 g ai/ha): 0; Kochia plant response rating (0 to 100 scale) ([4]; 31 g ai/ha): 0; Kochia plant response rating (0 to 100 scale) ([12]; Postemergence, 31 g ai/ha): 20; Kochia plant response rating (0 to 100 scale) [12, 20]: 50; Pigweed plant response rating (0 to 100 scale) ([13]; Postemergence, 31 g ai/ha): 70; Pigweed plant response rating (0 to 100 scale) [13, 20]: 90; Ragweed plant response rating (0 to 100 scale) ([14]; Postemergence, 31 g ai/ha): 100; Ragweed plant response rating (0 to 100 scale) [14, 20]: 100; Wheat plant response rating (0 to 100 scale) ([15]; Postemergence, 31 g ai/ha): 0; Wheat plant response rating (0 to 100 scale) [15, 20]: 0; Plant response rating, Barnyardgrass (Flood) [16]: 30; Plant response rating, Ducksalad (Flood) [17]: 30; Plant response rating, Rice (Flood) [18]: 0; Plant response rating, Sedge, Umbrella (Flood) [19]: 95 |
| CC(C)O/N=C(\c1c(O)c(Cl)nn(C)c1=O)c1cc(Br)cc2ccccc12 [Compound 233] | 0 | 90 | 100 | 60 | 100 | 0 | 90 | 90 | 0 | 0 | 40 | 60 | 0 | 30 | 0 | 10 | 30 | 80 | 60 | 90 | Ryegrass, Italian plant response rating (0 to 100 scale) ([1]; 31 g ai/ha): 0; Kochia plant response rating (0 to 100 scale) ([4]; 31 g ai/ha): 0; Kochia plant response rating (0 to 100 scale) ([12]; Postemergence, 31 g ai/ha): 0; Kochia plant response rating (0 to 100 scale) [12, 20]: 10; Pigweed plant response rating (0 to 100 scale) ([13]; Postemergence, 31 g ai/ha): 60; Pigweed plant response rating (0 to 100 scale) [13, 20]: 90; Ragweed plant response rating (0 to 100 scale) ([14]; Postemergence, 31 g ai/ha): 100; Ragweed plant response rating (0 to 100 scale) [14, 20]: 100; Wheat plant response rating (0 to 100 scale) ([15]; Postemergence, 31 g ai/ha): 0; Wheat plant response rating (0 to 100 scale) [15, 20]: 0; Plant response rating, Barnyardgrass (Flood) [16]: 30; Plant response rating, Ducksalad (Flood) [17]: 0; Plant response rating, Rice (Flood) [18]: 0; Plant response rating, Sedge, Umbrella (Flood) [19]: 85 |
| CCO/N=C(\c1c(O)c(Cl)nn(C)c1=O)c1cc(Br)cc2ccccc12 [Compound 235] | 0 | 90 | 100 | 30 | 90 | 70 | 100 | 90 | 0 | 0 | 60 | 90 | 20 | 20 | 0 | 10 | 40 | 80 | 90 | 90 | Ryegrass, Italian plant response rating (0 to 100 scale) ([1]; 31 g ai/ha): 0; Kochia plant response rating (0 to 100 scale) ([4]; 31 g ai/ha): 0; Kochia plant response rating (0 to 100 scale) ([12]; Postemergence, 31 g ai/ha): 50; Kochia plant response rating (0 to 100 scale) [12, 20]: 60; Pigweed plant response rating (0 to 100 scale) ([13]; Postemergence, 31 g ai/ha): 50; Pigweed plant response rating (0 to 100 scale) [13, 20]: 90; Ragweed plant response rating (0 to 100 scale) ([14]; Postemergence, 31 g ai/ha): 100; Ragweed plant response rating (0 to 100 scale) [14, 20]: 100; Wheat plant response rating (0 to 100 scale) ([15]; Postemergence, 31 g ai/ha): 0; Wheat plant response rating (0 to 100 scale) [15, 20]: 0; Plant response rating, Barnyardgrass (Flood) [16]: 60; Plant response rating, Ducksalad (Flood) [17]: 75; Plant response rating, Rice (Flood) [18]: 0; Plant response rating, Sedge, Umbrella (Flood) [19]: 90 |
